In series [1] the target is IR α 233–248 peptide of the human insulin receptor (Homo sapiens, UniProt P06213). The series can be described thus: UV spectroscopy binding to insulin receptor peptide IR α 233–248.
Series [2] deals with IR α 392–404 peptide of the human insulin receptor (Homo sapiens, UniProt P06213). The series can be described thus: UV spectroscopy binding to insulin receptor peptide IR α 392–404.
Series [3] has as its target IR α 91–103 peptide of the human insulin receptor (Homo sapiens, UniProt P06213). The series can be described thus: UV spectroscopy binding to insulin receptor peptide IR α 91–103.
Series [4] concerns the target recombinant human insulin (Humulin) (Homo sapiens, UniProt P01308). The series can be described thus: UV spectroscopy binding of sex hormones to recombinant human insulin (Humulin). Conditions: for Binding to INS (in words): UV spectroscopic studies, discussion summary.
In series [5] the target is IR α 223–234 peptide of the human insulin receptor (Homo sapiens, UniProt P06213). The series can be described thus: UV spectroscopy binding to insulin receptor peptide IR α 223–234.
Series [6] concerns the target IR α 453–464 peptide of the human insulin receptor (Homo sapiens, UniProt P06213). The series can be described thus: UV spectroscopy binding to insulin receptor peptide IR α 453–464.
The target of series [7] is IR α 105–118 peptide of the human insulin receptor (Homo sapiens, UniProt P06213). As to the kind of experiment: UV spectroscopy binding to insulin receptor peptide IR α 105–118.
For series [8], the target named is IR β 897–916 peptide of the human insulin receptor (Homo sapiens, UniProt P06213). As to the kind of experiment: UV spectroscopy binding to insulin receptor peptide IR β 897–916.
IR β 897–916 peptide of the human insulin receptor, sequence (P06213 897-916 limits assumed): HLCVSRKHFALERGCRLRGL
Series [9] addresses IR α 284–300 peptide of the human insulin receptor (Homo sapiens, UniProt P06213). The series can be described thus: UV spectroscopy binding to insulin receptor peptide IR α 284–300.
Series [10] concerns the target IR α 424–441 (human).
The target of series [11] is IR α 91–103 (human).
Series [12] has as its target IR α 392–404 (human).
Series [13] addresses IR α 233–248 (human).
The target of series [14] is IR α 223–234 (human).
Series [15] concerns the target T1, IR α 424–441 peptide of the human insulin receptor (Homo sapiens, UniProt P06213).
T1 construct: IR α 424–441; made in house; host or cells: chemical peptide synthesis (Michigan State University facility)
As to the kind of experiment: UV spectroscopy binding to insulin receptor peptide IR α 424–441. An excerpt: Humulin R was obtained from Lilly.

The target of series [16] is oxidized insulin B chain (Insulin beta chain) (Bos taurus, UniProt P01317). The series can be described thus: UV spectroscopy binding to oxidized insulin B chain. Conditions: read-out: Binding constant to individual oxidized INS B chain. The text has this: (§1) Additions were made serially.
oxidized insulin B chain (Insulin beta chain), sequence (P01317 25-54): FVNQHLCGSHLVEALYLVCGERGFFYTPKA
The target of series [17] is human INS-like growth factor receptor (IGFR) (Homo sapiens, UniProt P08069). As to the kind of experiment: UV spectroscopy (serial addition) binding of estradiol to IGFR. The note with it: human recombinant IGFR, biphasic. On the procedure: Rat IR membrane preparation (I-9266) (IR) and human INS-like growth factor receptor (IGFR) (I-4657) were obtained from Sigma-Aldrich. The rat IR was a partially purified preparation in residual membrane and contained 250 units of activity as measured by its ability to catalyze the incorporation of 1 pmol per min of phosphate from γ-^32P-ATP into poly(Glu, Tyr), 4:1, at 30°C. The IGFR was recombinant, at least 95% pure by SDS-PAGE, and capable of binding INS-like growth factor. Both receptor preparations, in sum, retained activity.
human INS-like growth factor receptor (IGFR), sequence (P08069 with tags, fused parts or gaps): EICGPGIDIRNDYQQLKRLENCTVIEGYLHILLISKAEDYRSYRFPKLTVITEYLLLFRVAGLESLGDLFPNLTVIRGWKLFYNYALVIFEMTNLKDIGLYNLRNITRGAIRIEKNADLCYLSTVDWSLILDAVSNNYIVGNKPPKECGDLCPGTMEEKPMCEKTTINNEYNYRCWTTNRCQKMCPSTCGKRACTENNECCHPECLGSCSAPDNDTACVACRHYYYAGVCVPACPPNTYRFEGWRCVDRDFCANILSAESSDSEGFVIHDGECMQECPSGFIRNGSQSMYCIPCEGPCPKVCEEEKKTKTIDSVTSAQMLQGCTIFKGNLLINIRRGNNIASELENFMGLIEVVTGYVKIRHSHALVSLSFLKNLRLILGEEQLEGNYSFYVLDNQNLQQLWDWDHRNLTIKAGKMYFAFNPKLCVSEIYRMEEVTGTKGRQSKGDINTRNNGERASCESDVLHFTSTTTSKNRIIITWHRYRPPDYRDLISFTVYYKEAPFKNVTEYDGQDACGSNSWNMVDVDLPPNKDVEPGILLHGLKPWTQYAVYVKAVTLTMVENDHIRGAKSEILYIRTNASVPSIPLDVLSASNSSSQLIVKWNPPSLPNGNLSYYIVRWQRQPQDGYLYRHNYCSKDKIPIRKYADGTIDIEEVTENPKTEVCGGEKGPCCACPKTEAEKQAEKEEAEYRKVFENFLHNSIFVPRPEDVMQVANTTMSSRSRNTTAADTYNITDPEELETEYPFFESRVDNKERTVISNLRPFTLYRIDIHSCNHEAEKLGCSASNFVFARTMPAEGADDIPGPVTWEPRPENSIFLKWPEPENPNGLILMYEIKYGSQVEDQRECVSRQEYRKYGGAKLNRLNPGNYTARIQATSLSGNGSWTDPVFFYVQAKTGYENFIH
as §1
This serial addition method was also used to determine the binding of estradiol to IR and IGFR.

Series [18] deals with Human recombinant INS. As to the kind of experiment: Capillary electrophoresis: E2 in solution with and without insulin. The note with it: mean ± SD of the five EI/E ratios (10, 15, 20, 25, 30 kV).
Series [19] concerns INS binding. Conditions: 10^−8 M 17β-estradiol in the culture medium; ref Hilf et al. ([80]); cited from earlier work.
Series [20] in a line: Concentration of E2 in E2-saturated buffer with INS–HRP or IR, by capillary electrophoresis. In kind it is physicochemical. The note with it: crystals in buffer, at least 48 h room temperature; CE read-out.
The target of series [21] is Glucagon (Homo sapiens, UniProt P01275). The series can be described thus: UV spectroscopy binding to glucagon (control).
Glucagon, sequence (P01275 53-81): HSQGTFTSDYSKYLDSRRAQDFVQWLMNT
For series [22], the system named is INS binding. The note with it: 1 mg dose of E2, within 24 h; ref Hilf et al. ([80]); cited from earlier work.
Series [23] deals with oxidized insulin A chain (Insulin alpha chain) (Bos taurus, UniProt P01317). As to the kind of experiment: UV spectroscopy binding to oxidized insulin A chain.
oxidized insulin A chain (Insulin alpha chain), sequence (P01317 85-105): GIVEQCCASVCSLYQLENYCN
For series [24], the system named is insulin receptor (IR) isolated from rat liver. The series can be described thus: Enzyme-linked INS binding assay: effect of E2 on INS–HRP binding to IR.
Where [25] appears, read: UV spectroscopy, peptide 100 nM in pH 7.4 phosphate buffer, 30 min room temperature, duplicates averaged.
[26] abbreviates: Binding constant to recombinant human INS, UV spectroscopy.

“And” between values parts separate entries of the source, which are not always exact repeats. Equal values may be shown once. Where a name gives a salt, the structure may show the parent alone. Read-outs that look alike come from different tables or passages of the source. Bounds are passed on as bounds.

recombinant human insulin (Humulin), sequence (P01308 with tags, fused parts or gaps): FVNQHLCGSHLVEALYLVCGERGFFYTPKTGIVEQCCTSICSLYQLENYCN
recombinant human insulin (Humulin), sequence (P01308 with tags, fused parts or gaps): as above

Take `CC(C)CCC[C@@H](C)[C@H]1CC[C@H]2[C@@H]3CC=C4C[C@@H](O)CC[C@]4(C)[C@H]3CC[C@]12C` [Cholesterol]: the Kd in [1], in series [2], in [3], in series [4], in series [5] and in series [6] was above 500 µM each time. In addition, the Kd in [7], in series [8] and in [9] was above 500 µM in each case.
Take “insulin conjugated to horse-radish peroxidase (ligand)”: the Kd in [10] was above 500 µM; in [11], 0.07 µM; in [12], 0.3 µM; in [13], 0.008 µM; in series [14], above 500 µM.
Regarding `C[C@]12CC[C@@H]3c4ccc(O)cc4CC[C@H]3[C@@H]1C[C@@H](O)[C@@H]2O` [Estriol], the Kd in [1] was above 500 µM; in series [15] (setting [25]) it was 380 µM; in series [2] it was above 500 µM; in [3], above 500 µM; in series [4], above 500 µM; in series [4] (setting [26]), above 500 µM. The Kd was above 500 µM in series [5]; 390 µM in series [6]; above 500 µM in series [7]; above 500 µM in series [8]; above 500 µM in [9].
For `C[C@]12CC[C@@H]3c4ccc(O)cc4CC[C@H]3[C@@H]1CC[C@H]2O` [17α-Estradiol], in series [4], the Kd is 10 µM. In addition, the “Binding to INS (in words), serial additions” value in [4] (UV spectroscopy, serial additions, even at 1 μM (Figure 2)) is reported as “does not bind significantly”.
In the case of `C[C@]12CC[C@@H]3c4ccc(O)cc4CC[C@H]3[C@@H]1CC[C@@H]2O` [17β-Estradiol (E2), 17β-Estradiol], the Kd in series [1] was above 500 µM; in series [15] (setting [25]) it was above 500 µM; in series [2] it was above 500 µM; in [16] it was 150 µM; in [17] (read-out: Binding to IGFR, high affinity binding), around 0.1 µM; in series [17] (read-out: Kd to IGFR, lower affinity binding) it was above 10 µM. In addition, the Kd is 120 µM in series [3]; 0.012 µM in [4]; ~0.012 µM and 0.012 µM in [4] (Binding constant (Kd) to INS, high affinity binding, UV spectroscopy); 65 µM in series [4] (read-out: Binding constant to INS, low affinity binding, UV spectroscopy, biphasic binding); above 500 µM in series [5]; above 500 µM in series [6]. For the same molecule, the Kd worked out at 220 µM in [23] (read-out: Binding constant to individual oxidized INS A chain, UV spectroscopy); 280 µM in series [7]; 0.78 µM in series [8]; 0.9 µM in series [9]. In addition, the “EI/E ratio, mean ± SD” value in series [18] is recorded as 3.96 ± 0.45. In addition, the “Decrease of INS binding in cell culture” value in [19] is ~ 20%. In addition, the “Concentration of E2 in E2-saturated phosphate buffer in the presence of INS or IR” value in series [20] is recorded as “ca. 60 ng/ml”. Besides, the “Binding to glucagon (in words)” value in series [21] is “does not bind with measurable affinity”. Also, in [22], the “Decrease of INS binding in rats” value was at most 50%. Also, the “Binding to the insulin A chain (in words), serial additions” value in [23] (UV serial addition, 1000 times the concentration of E2 used in Figure 2 (Figure 3)) is “no binding was apparent”. The “Shift of INS–HRP/IR binding curve to the right” value in series [24] (E2 incubated with either INS–HRP or the IR alone, E2 initially 200 nM, about 22 nM at curve mid-point, duplicates averaged) was “half”; in [24] (both the IR and INS–HRP exposed to E2, E2 about 22 nM at curve mid-point), 0.8 log units.
As for `CC/C(=C(\c1ccccc1)c1ccc(OCCN(C)C)cc1)c1ccccc1` [Tamoxifen, Tamoxifen citrate salt], in series [4], the Kd is above 500 µM and the “Binding to INS (in words)” value is listed as “negligible binding”.
Turning to `CC(=O)[C@H]1CC[C@H]2[C@@H]3CC=C4C[C@@H](O)CC[C@]4(C)[C@H]3CC[C@]12C` [Pregnenolone, 5-Pregnen-3β-ol-20-one], in series [15] (setting [25]), the Kd was above 500 µM.
Regarding `O=C(c1ccc(OCCN2CCCCC2)cc1)c1c(-c2ccc(O)cc2)sc2cc(O)ccc12` [Raloxifene, Raloxifene HCl], the Kd in series [4] and in series [4] (setting [26]) was 130 µM throughout. Besides, the “Binding to INS (in words)” value in series [4] was “negligible binding”.
As to `C[C@]12CCC(=O)C=C1CC[C@@H]1[C@@H]2CC[C@]2(C)C(=O)CC[C@@H]12` [Andro-stenedione, 4-andro-stenedione], the Kd was above 500 µM in series [1]; above 500 µM in series [15]; above 500 µM in series [2]; above 500 µM in [3]; 13.5 µM in [4]; above 500 µM in [5]. Also, the Kd in series [6], in series [7], in series [8] and in series [9] was above 500 µM each time.
Turning to `C[C@]12CCC(=O)C=C1CC[C@@H]1[C@@H]2[C@@H](O)C[C@@]2(C)[C@H]1CC[C@]2(O)C(=O)CO` [Hydrocortisone], the Kd in series [4] was found to be 63.5 µM.
Turning to `CC(=O)[C@H]1CC[C@H]2[C@@H]3CCC4=CC(=O)CC[C@]4(C)[C@H]3CC[C@]12C` [Progesterone], the Kd in [1], in series [2], in series [3], in series [4], in series [5] and in series [6] was above 500 µM throughout. Further, the Kd in series [7], in [8] and in series [9] was above 500 µM in each case.
`C[C@]12C[C@H](O)[C@H]3[C@@H](CCC4=CC(=O)CC[C@@]43C)[C@@H]1CC[C@@H]2C(=O)CO` [Corticosterone]: the Kd in series [4] is 21.1 µM.
On to `C[C@]12CC[C@@H]3c4ccc(O)cc4CC[C@H]3[C@@H]1CCC2=O` [Estrone], for which the Kd in [1] was above 500 µM; in series [15] (setting [25]), above 500 µM; in series [2], above 500 µM; in series [3], above 500 µM; in series [4] it was 1.25 µM; in series [5] it was above 500 µM. Besides, the Kd in [6], in series [7], in series [8] and in series [9] was above 500 µM throughout.
With `O=c1c(-c2ccc(O)cc2)coc2cc(O)cc(O)c12` [Genistein], in series [4], the Kd was above 500 µM and the “Binding to INS (in words)” value was “negligible binding”.

The record behind these values is paper PMC4104309, “Estradiol Binds to Insulin and Insulin Receptor Decreasing Insulin Binding in vitro” (Frontiers in Endocrinology, 2014).
